We go through 13 molecules from ChEMBL document CHEMBL1153470, “Design, synthesis, and biological evaluation of 16-substituted 4-azasteroids as tissue-selective androgen receptor modulators (SARMs)” (J Med Chem, 2009).

Each structure is given as a SMILES string. Values after ≈ are worked out from the molar mass of the structure shown.

Broadly, the AUC is concentration integrated over time. A low value points to low exposure. Usually solubility stands for how much of the substance goes into solution per volume. As usually defined, the half-life is the time in which the quantity being followed falls by half. Low values mean rapid decline, high ones slow decline. What is called clearance is the rate of elimination divided by the concentration. One may read the bioavailability as the share of a dose that reaches the circulation, judged against a reference dose that is usually intravenous. Lower therefore signals poor availability.

One data set in a line: AUC in orchidectomized Sprague-Dawley rat at 10 mg/kg, sc. The data set is classed as ADME, organism-based. On the set-up: dose 10 mg/kg, route subcutaneous. The following applies: male, plasma.
`CN1C(=O)C=C[C@]2(C)[C@H]3CC[C@]4(C)[C@@H](O)/C(=C/c5cncnc5)C[C@H]4[C@@H]3CC[C@@H]12`: the AUC was 4.3 µM·h.

A further data set is described as follows: AUC in orchidectomized Sprague-Dawley rat at 30 mg/kg, sc. The data set is classed as ADME, organism-based. Details: dose 30 mg/kg, route subcutaneous. The note with it: male, plasma.
The molecule `CN1C(=O)C=C[C@]2(C)[C@H]3CC[C@]4(C)[C@@H](O)/C(=C/c5cncnc5)C[C@H]4[C@@H]3CC[C@@H]12` showed an AUC of 16.2 µM·h.

Another data set is described as follows: Aqueous solubility at pH 2. The data set is classed as physicochemical.
Conditions: not given
Molecule `Cc1ncc(/C=C2\C[C@H]3[C@@H]4CC[C@H]5N(C)C(=O)C=C[C@]5(C)[C@H]4CC[C@]3(C)[C@H]2O)cn1` gave a solubility of 230 µg/mL (≈ 564 µM).

With `CN1C(=O)C=C[C@]2(C)[C@H]3CC[C@]4(C)[C@@H](O)/C(=C/c5cncnc5)C[C@H]4[C@@H]3CC[C@@H]12`, the solubility was 570 µg/mL (≈ 1450 µM).

A further data set is described as follows: Half life in Beagle dog at 0.2 mg/kg, iv. The data set is classed as ADME, organism-based, Canis lupus familiaris. On the set-up: dose 0.2 mg/kg, route intravenous. The note with it: in vivo.
In the case of `C[C@@H]1C[C@H]2[C@@H]3CC[C@H]4N(C)C(=O)C=C[C@]4(C)[C@H]3CC[C@]2(C)[C@H]1O`, the half-life is 60 min.

Molecule `COC[C@@H]1C[C@H]2[C@@H]3CC[C@H]4N(C)C(=O)C=C[C@]4(C)[C@H]3CC[C@]2(C)[C@H]1O` gave a half-life of 90 min.

Turning to `Cc1ncc(/C=C2\C[C@H]3[C@@H]4CC[C@H]5N(C)C(=O)C=C[C@]5(C)[C@H]4CC[C@]3(C)[C@H]2O)cn1`, the half-life is 1120 min.

In the case of `CN1C(=O)C=C[C@]2(C)[C@H]3CC[C@]4(C)[C@@H](O)/C(=C/c5cncnc5)C[C@H]4[C@@H]3CC[C@@H]12`, the half-life is 138 min.

Turning to `CN1C(=O)C=C[C@]2(C)[C@H]3CC[C@]4(C)[C@@H](O)[C@H](Cc5cccc(F)c5)C[C@H]4[C@@H]3CC[C@@H]12`, the half-life was 180 min.

Regarding `CN1C(=O)C=C[C@]2(C)[C@H]3CC[C@]4(C)[C@@H](O)/C(=C/c5cc(F)cc(F)c5)C[C@H]4[C@@H]3CC[C@@H]12`, the half-life was 546 min.

Turning to `C/C=C1\C[C@H]2[C@@H]3CC[C@H]4N(C)C(=O)C=C[C@]4(C)[C@H]3CC[C@]2(C)[C@H]1O`, the half-life was 60 min.

`CN1C(=O)C=C[C@]2(C)[C@H]3CC[C@]4(C)[C@@H](O)CC[C@H]4[C@@H]3CC[C@@H]12`: the half-life was 42 min.

The molecule `COc1ncc(/C=C2\C[C@H]3[C@@H]4CC[C@H]5N(C)C(=O)C=C[C@]5(C)[C@H]4CC[C@]3(C)[C@H]2O)cn1` gave a half-life of 762 min.

In turn, `CN1C(=O)C=C[C@]2(C)[C@H]3CC[C@]4(C)[C@@H](O)/C(=C/c5cccc(F)c5)C[C@H]4[C@@H]3CC[C@@H]12` gave a half-life of 294 min.

On to `CN1C(=O)C=C[C@]2(C)[C@H]3CC[C@]4(C)[C@@H](O)/C(=C/c5cccnc5)C[C@H]4[C@@H]3CC[C@@H]12`, for which the half-life was 1030 min.

Regarding `CNc1ncc(/C=C2\C[C@H]3[C@@H]4CC[C@H]5N(C)C(=O)C=C[C@]5(C)[C@H]4CC[C@]3(C)[C@H]2O)cn1`, the half-life is 654 min.

The nature of a further data set: Clearance in Beagle dog at 0.2 mg/kg, iv. It counts as ADME, organism-based, Canis lupus familiaris. On the set-up: dose 0.2 mg/kg, route intravenous. The following applies: in vivo.
As for `C[C@@H]1C[C@H]2[C@@H]3CC[C@H]4N(C)C(=O)C=C[C@]4(C)[C@H]3CC[C@]2(C)[C@H]1O`, the clearance came to 20.2 mL/min/kg.

For `COC[C@@H]1C[C@H]2[C@@H]3CC[C@H]4N(C)C(=O)C=C[C@]4(C)[C@H]3CC[C@]2(C)[C@H]1O`, the clearance stood at 11 mL/min/kg.

`Cc1ncc(/C=C2\C[C@H]3[C@@H]4CC[C@H]5N(C)C(=O)C=C[C@]5(C)[C@H]4CC[C@]3(C)[C@H]2O)cn1` showed a clearance of 1.5 mL/min/kg.

`CN1C(=O)C=C[C@]2(C)[C@H]3CC[C@]4(C)[C@@H](O)/C(=C/c5cncnc5)C[C@H]4[C@@H]3CC[C@@H]12`: the clearance is 15.3 mL/min/kg.

The molecule `CN1C(=O)C=C[C@]2(C)[C@H]3CC[C@]4(C)[C@@H](O)[C@H](Cc5cccc(F)c5)C[C@H]4[C@@H]3CC[C@@H]12` showed a clearance of 22 mL/min/kg.

In turn, `CN1C(=O)C=C[C@]2(C)[C@H]3CC[C@]4(C)[C@@H](O)/C(=C/c5cc(F)cc(F)c5)C[C@H]4[C@@H]3CC[C@@H]12` showed a clearance of 6.8 mL/min/kg.

`C/C=C1\C[C@H]2[C@@H]3CC[C@H]4N(C)C(=O)C=C[C@]4(C)[C@H]3CC[C@]2(C)[C@H]1O` had a clearance of 42.8 mL/min/kg.

`CN1C(=O)C=C[C@]2(C)[C@H]3CC[C@]4(C)[C@@H](O)CC[C@H]4[C@@H]3CC[C@@H]12` returned a clearance of 32.3 mL/min/kg.

The molecule `COc1ncc(/C=C2\C[C@H]3[C@@H]4CC[C@H]5N(C)C(=O)C=C[C@]5(C)[C@H]4CC[C@]3(C)[C@H]2O)cn1` displayed a clearance of 4.6 mL/min/kg.

Take `CN1C(=O)C=C[C@]2(C)[C@H]3CC[C@]4(C)[C@@H](O)/C(=C/c5cccc(F)c5)C[C@H]4[C@@H]3CC[C@@H]12`: the clearance is 15.2 mL/min/kg.

As to `CN1C(=O)C=C[C@]2(C)[C@H]3CC[C@]4(C)[C@@H](O)/C(=C/c5cccnc5)C[C@H]4[C@@H]3CC[C@@H]12`, the clearance was 5 mL/min/kg.

The molecule `CNc1ncc(/C=C2\C[C@H]3[C@@H]4CC[C@H]5N(C)C(=O)C=C[C@]5(C)[C@H]4CC[C@]3(C)[C@H]2O)cn1` gave a clearance of 0.8 mL/min/kg.

A further data set is described as follows: Oral bioavailability in Beagle dog at 1 mg/kg. The data set is classed as ADME, organism-based, Canis lupus familiaris. The note with it: in vivo.
The molecule `CN1C(=O)C=C[C@]2(C)[C@H]3CC[C@]4(C)[C@@H](O)/C(=C/c5cncnc5)C[C@H]4[C@@H]3CC[C@@H]12` had a bioavailability of 51%.

Molecule `CN1C(=O)C=C[C@]2(C)[C@H]3CC[C@]4(C)[C@@H](O)/C(=C/c5cccnc5)C[C@H]4[C@@H]3CC[C@@H]12` came in with a bioavailability of 21%.

The nature of a further data set: AUC in ovariectomized Sprague-Dawley rat at 10 mg/kg, sc. The data set is classed as ADME, organism-based. Details: dose 10 mg/kg, route subcutaneous. The following applies: female, plasma.
As to `CN1C(=O)C=C[C@]2(C)[C@H]3CC[C@]4(C)[C@@H](O)/C(=C/c5cncnc5)C[C@H]4[C@@H]3CC[C@@H]12`, the area under the curve (AUC) was determined as 17 µM·h.

The next data set in a line: in vivo. The following applies: female, Sprague-Dawley, rat, plasma, sc, 3 mg/kg.
The molecule `C[C@]12CCC(=O)C[C@@H]1CC[C@@H]1[C@@H]2CC[C@]2(C)[C@@H](O)CC[C@@H]12` [STANOLONE] had an AUC of 0.02 µM·h.

Another data set is described as follows: in vivo. The note with it: male, Sprague-Dawley, rat, plasma, sc, 3 mg/kg.
In turn, `C[C@]12CCC(=O)C[C@@H]1CC[C@@H]1[C@@H]2CC[C@]2(C)[C@@H](O)CC[C@@H]12` [STANOLONE] displayed an AUC of 0.08 µM·h.

A short description of the next data set: AUC in ovariectomized Sprague-Dawley rat at 1 mg/kg, sc. The following applies: female, plasma.
Turning to `Cc1ncc(/C=C2\C[C@H]3[C@@H]4CC[C@H]5N(C)C(=O)C=C[C@]5(C)[C@H]4CC[C@]3(C)[C@H]2O)cn1`, the AUC was determined as 17 µM·h.
